Active and inactive are the calls of the source. The rule behind the calls is not given here.
Experiments:
[1] = Tmax in Sprague-Dawley rat at 10 mg/kg, po measured up to 1280 mins by HPLC-MS/MS analysis; type: ADME, organism-based; settings: in vivo
[2] = Ratio of drug concentration in brain to plasma in ICR mouse at 10 mg/kg, po measured at 2 hrs by LC-MS/MS analysis; type: ADME, organism-based; settings: read-out: BPR
[3] = Drug concentration in Sprague-Dawley rat plasma at 3 mg/kg, iv measured at 20 mins by LC-MS/MS analysis; type: ADME, organism-based
[4] = MRT in ICR mouse at 3 mg/kg, iv measured up to 24 hrs by HPLC-MS/MS analysis; type: ADME, organism-based; settings: in vivo
[5] = Oral bioavailability in ICR mouse at 10 mg/kg measured up to 24 hrs by HPLC-MS/MS analysis; type: ADME, organism-based; settings: in vivo
[6] = AUC (0 to t) in ICR mouse at 3 mg/kg, iv measured up to 24 hrs by HPLC-MS/MS analysis; type: ADME, organism-based; set-up: route intravenous, dose 3 mg/kg, time <=24; settings: in vivo
[7] = Cmax in Sprague-Dawley rat at 3 mg/kg, iv measured up to 1280 mins by HPLC-MS/MS analysis; type: ADME, organism-based; set-up: route intravenous, dose 3 mg/kg, time <=1280; settings: in vivo
[8] = Ratio of drug concentration in brain to plasma in ICR mouse at 10 mg/kg, po measured at 0.5 hrs by LC-MS/MS analysis; type: ADME, organism-based; settings: read-out: BPR
[9] = Drug concentration in Sprague-Dawley rat plasma at 3 mg/kg, iv measured at 80 mins by LC-MS/MS analysis; type: ADME, organism-based
[10] = Drug concentration in ICR mouse plasma at 3 mg/kg, iv measured at 0.5 hrs by LC-MS/MS analysis; type: ADME, organism-based
[11] = Half life in Sprague-Dawley rat at 3 mg/kg, iv measured up to 1280 mins by HPLC-MS/MS analysis; type: ADME, organism-based; settings: in vivo
[12] = Half life in ICR mouse at 10 mg/kg, po measured up to 24 hrs by HPLC-MS/MS analysis; type: ADME, organism-based; settings: in vivo
[13] = Drug concentration in ICR mouse plasma at 3 mg/kg, iv measured at 2 hrs; type: ADME, organism-based
[14] = Volume of distribution at steady state in Sprague-Dawley rat at 3 mg/kg, iv measured up to 1280 mins by HPLC-MS/MS analysis; type: ADME, organism-based; settings: in vivo
[15] = Tmax in ICR mouse at 10 mg/kg, po measured up to 24 hrs by HPLC-MS/MS analysis; type: ADME, organism-based; settings: in vivo
[16] = AUC (0 to t) in Sprague-Dawley rat at 3 mg/kg, iv measured up to 1280 mins by HPLC-MS/MS analysis; type: ADME, organism-based; set-up: route intravenous, dose 3 mg/kg, time <=1280; settings: in vivo
[17] = Ratio of drug concentration in brain to plasma in ICR mouse at 3 mg/kg, iv measured at 0.5 hrs by LC-MS/MS analysis; type: ADME, organism-based; settings: read-out: BPR
[18] = biological target: Sodium-dependent noradrenaline transporter (Homo sapiens) (UniProt P23975); experiment: Displacement of [3H]-Nisoxetine from NET (unknown origin)
[19] = AUC (0 to t) in ICR mouse at 10 mg/kg, po measured up to 24 hrs by HPLC-MS/MS analysis; type: ADME, organism-based; set-up: route oral, dose 10 mg/kg, time <=24; settings: in vivo
[20] = biological target: 5-hydroxytryptamine receptor 2A (Homo sapiens) (UniProt P28223); experiment: Displacement of [3H]-ketanserin from human 5HT2AR expressed in CHO cells incubated for 30 mins by liquid scintillation counting analysis; type: cell-based
[21] = Ratio of drug concentration in brain to plasma in ICR mouse at 3 mg/kg, iv measured at 2 hrs by LC-MS/MS analysis; type: ADME, organism-based; settings: read-out: BPR
[22] = Drug concentration in ICR mouse brain at 3 mg/kg, iv measured at 2 hrs; type: ADME, organism-based; settings: read-out: Ct
[23] = […] in ICR mouse assessed as change in behaviour at 30 mg/kg, po administered for 28 days; type: organism-based; settings: in vivo, 672 h, time 28 day
[24] = Clearance in Sprague-Dawley rat at 3 mg/kg, iv measured up to 1280 mins by HPLC-MS/MS analysis; type: ADME, organism-based; settings: in vivo
[25] = Oral bioavailability in Sprague-Dawley rat at 10 mg/kg measured up to 1280 mins by HPLC-MS/MS analysis; type: ADME, organism-based; settings: in vivo
[26] = biological target: 5-hydroxytryptamine receptor 1A (Homo sapiens) (UniProt P08908); experiment: Displacement of [3H]-8-OH-DPAT from human 5HT1AR expressed in CHO cells incubated for 30 mins by liquid scintillation counting analysis; type: cell-based
[27] = biological target: Adrenergic receptor alpha-1 (Rattus norvegicus) (UniProt P15823+P23944+P43140); experiment: Displacement of [3H]-prazosin from rat adrenergic alpha 1 receptor incubated for 60 mins by liquid scintillation counting analysis; type: protein assay
[28] = biological target: Sodium-dependent dopamine transporter (Rattus norvegicus) (UniProt P23977); experiment: Displacement of [3H]-WIN35428 from rat striatum DAT; type: tissue-based
[29] = Effect on locomotor activity in ICR mouse assessed as hyperlocomotion at 10 mg/kg, ip measured after 90 mins; type: ADME, organism-based; settings: in vivo, 1.5 h
[30] = biological target: Sodium-dependent serotonin transporter (Homo sapiens) (UniProt P31645); experiment: Displacement of [3H]-paroxetine from SERT (unknown origin); set-up: dose or concentration left out as unconfirmed
[31] = biological target: 5-hydroxytryptamine receptor 2C (Rattus norvegicus) (UniProt P08909); experiment: Displacement of [3H]-mesulergine from rat cerebral cortex 5HT2CR incubated for 15 mins by liquid scintillation counting analysis; type: tissue-based
[32] = biological target: Glutamate NMDA receptor (Mus musculus) (UniProt P35436+Q91ZU9+Q03391+P35438+Q01097+Q01098+A2AIR5); experiment: Positive allosteric modulation of C57BL/6 mouse NMDA receptor assessed as fold change in compound potentiated NMDA-induced current relative to NMDA current alone at 30 uM measured after 15 to 30 mins by patch-clamp method; type: tissue-based; settings: Brain, filed as positive allosteric modulator, time 15-30 min
[33] = Half life in Sprague-Dawley rat at 10 mg/kg, po measured up to 1280 mins by HPLC-MS/MS analysis; type: ADME, organism-based; settings: in vivo
[34] = Cytotoxicity against mouse L929 cells assessed as cell growth inhibition at 60 uM measured after 48 hrs by CCK8 assay relative to control; type: cell-based
[35] = […] in ICR mouse assessed as decrease in body weight at 30 mg/kg, po administered for 28 days; type: organism-based; settings: in vivo, 672 h, time 28 day
[36] = biological target: 5-hydroxytryptamine receptor 6 (Homo sapiens) (UniProt P50406); experiment: Displacement of [3H]-LSD from human 5HT6 incubated for 30 mins by liquid scintillation counting analysis
Mus musculus = experiment: Antidepressant activity in ICR mouse assessed as decrease in immobility time at 3 to 10 mg/kg, ip measured after 26 mins by forced swim test; type: functional, organism-based; settings: dose 3-10 mg/kg
[37] = Cytotoxicity against African green monkey Vero cells assessed as cell growth inhibition at 120 uM measured after 48 hrs by CCK8 assay relative to control; type: cell-based; settings: chlorocebus sabaeus
[38] = Effect on locomotor activity in ICR mouse assessed as hypolocomotion at 10 mg/kg, ip measured after 90 mins; type: ADME, organism-based; settings: in vivo, 1.5 h
[39] = Drug concentration in ICR mouse brain at 10 mg/kg, po measured at 2 hrs by LC-MS/MS analysis; type: ADME, organism-based; settings: read-out: Ct

Chain of Sodium-dependent dopamine transporter (Rattus norvegicus) (P23977 whole entry): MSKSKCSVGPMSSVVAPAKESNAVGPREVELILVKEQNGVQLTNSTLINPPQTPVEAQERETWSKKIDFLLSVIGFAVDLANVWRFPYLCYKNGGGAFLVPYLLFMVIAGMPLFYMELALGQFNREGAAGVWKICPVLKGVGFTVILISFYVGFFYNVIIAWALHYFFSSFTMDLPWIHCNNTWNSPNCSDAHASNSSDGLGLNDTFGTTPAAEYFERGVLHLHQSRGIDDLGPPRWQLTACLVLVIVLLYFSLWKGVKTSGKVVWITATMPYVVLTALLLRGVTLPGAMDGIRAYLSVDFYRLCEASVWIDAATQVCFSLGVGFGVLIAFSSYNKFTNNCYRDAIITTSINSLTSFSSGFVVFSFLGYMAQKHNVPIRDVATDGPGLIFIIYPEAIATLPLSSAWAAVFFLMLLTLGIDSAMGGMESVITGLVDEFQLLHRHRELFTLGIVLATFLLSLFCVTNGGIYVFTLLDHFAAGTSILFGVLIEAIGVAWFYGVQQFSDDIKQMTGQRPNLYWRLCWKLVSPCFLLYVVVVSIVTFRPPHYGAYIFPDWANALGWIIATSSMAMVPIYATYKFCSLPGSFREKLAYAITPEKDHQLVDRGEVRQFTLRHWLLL
Chain of Sodium-dependent serotonin transporter (Homo sapiens) (P31645 whole entry, looked up): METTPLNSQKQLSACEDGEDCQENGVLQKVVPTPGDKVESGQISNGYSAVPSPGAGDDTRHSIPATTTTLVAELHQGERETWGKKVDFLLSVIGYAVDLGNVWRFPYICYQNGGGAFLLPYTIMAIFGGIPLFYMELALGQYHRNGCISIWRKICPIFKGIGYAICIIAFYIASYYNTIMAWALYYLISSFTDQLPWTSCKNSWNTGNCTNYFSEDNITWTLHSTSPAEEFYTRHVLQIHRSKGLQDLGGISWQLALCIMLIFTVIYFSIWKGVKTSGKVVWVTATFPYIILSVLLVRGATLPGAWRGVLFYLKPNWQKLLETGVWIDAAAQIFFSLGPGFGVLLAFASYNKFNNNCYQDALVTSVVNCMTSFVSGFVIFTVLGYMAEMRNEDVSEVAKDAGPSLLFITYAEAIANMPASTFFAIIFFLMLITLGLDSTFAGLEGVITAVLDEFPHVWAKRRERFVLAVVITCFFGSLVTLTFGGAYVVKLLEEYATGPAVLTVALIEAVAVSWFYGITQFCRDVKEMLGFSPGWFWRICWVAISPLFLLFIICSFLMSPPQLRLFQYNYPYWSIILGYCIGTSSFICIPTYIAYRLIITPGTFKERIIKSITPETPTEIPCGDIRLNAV
Chain of 5-hydroxytryptamine receptor 1A (Homo sapiens) (P08908 whole entry): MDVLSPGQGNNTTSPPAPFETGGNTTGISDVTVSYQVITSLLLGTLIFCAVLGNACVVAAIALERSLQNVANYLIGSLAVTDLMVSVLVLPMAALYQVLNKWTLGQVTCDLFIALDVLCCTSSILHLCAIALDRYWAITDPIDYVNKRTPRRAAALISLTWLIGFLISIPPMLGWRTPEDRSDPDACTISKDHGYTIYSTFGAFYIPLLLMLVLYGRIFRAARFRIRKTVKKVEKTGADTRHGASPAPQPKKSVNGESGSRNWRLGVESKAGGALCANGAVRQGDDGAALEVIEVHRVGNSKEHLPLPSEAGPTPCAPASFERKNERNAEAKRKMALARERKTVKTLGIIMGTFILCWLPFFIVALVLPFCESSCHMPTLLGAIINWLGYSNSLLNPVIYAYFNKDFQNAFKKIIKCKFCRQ
Chain of 5-hydroxytryptamine receptor 2C (Rattus norvegicus) (P08909 whole entry): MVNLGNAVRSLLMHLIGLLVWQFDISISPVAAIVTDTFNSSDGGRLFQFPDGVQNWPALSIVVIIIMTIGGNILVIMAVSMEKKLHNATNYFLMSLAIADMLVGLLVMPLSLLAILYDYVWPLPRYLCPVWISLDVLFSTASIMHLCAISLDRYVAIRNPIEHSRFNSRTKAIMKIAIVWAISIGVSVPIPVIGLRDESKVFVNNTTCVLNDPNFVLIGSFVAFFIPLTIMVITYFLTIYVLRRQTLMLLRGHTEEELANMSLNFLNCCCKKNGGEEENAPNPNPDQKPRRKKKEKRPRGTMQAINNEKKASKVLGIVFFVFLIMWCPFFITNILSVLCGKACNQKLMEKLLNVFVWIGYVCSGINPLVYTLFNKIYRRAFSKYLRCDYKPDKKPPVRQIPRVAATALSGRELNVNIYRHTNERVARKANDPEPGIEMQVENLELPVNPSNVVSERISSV
Chain of Sodium-dependent noradrenaline transporter (Homo sapiens) (P23975 whole entry): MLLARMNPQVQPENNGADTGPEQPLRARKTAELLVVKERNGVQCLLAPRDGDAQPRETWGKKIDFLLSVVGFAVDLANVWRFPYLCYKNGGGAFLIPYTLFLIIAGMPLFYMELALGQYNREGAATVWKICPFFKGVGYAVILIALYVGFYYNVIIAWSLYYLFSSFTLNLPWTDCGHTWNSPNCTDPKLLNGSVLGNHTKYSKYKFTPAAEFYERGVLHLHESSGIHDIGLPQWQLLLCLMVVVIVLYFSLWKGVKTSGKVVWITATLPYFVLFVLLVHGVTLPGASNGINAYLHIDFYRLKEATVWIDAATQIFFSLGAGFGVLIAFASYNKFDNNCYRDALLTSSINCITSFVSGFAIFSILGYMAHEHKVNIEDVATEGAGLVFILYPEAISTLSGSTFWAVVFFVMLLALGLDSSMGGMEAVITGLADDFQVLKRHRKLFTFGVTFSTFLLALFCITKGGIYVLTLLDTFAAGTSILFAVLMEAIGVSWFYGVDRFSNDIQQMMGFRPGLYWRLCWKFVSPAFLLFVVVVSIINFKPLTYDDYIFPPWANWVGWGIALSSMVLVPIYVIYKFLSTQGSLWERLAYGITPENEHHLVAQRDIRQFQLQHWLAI
Chain of 5-hydroxytryptamine receptor 6 (Homo sapiens) (P50406 whole entry): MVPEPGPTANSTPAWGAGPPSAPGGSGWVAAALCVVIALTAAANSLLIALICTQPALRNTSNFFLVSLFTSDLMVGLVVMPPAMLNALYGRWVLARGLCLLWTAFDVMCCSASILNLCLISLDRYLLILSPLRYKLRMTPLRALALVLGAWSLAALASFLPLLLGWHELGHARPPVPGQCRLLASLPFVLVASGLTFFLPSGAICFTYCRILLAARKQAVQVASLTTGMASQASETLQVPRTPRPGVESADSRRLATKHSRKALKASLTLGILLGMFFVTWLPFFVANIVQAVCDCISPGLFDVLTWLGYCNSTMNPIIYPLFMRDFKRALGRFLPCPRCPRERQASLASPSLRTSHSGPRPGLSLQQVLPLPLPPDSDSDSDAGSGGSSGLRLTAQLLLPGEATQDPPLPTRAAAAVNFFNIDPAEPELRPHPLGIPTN
Chain of 5-hydroxytryptamine receptor 2A (Homo sapiens) (P28223 whole entry): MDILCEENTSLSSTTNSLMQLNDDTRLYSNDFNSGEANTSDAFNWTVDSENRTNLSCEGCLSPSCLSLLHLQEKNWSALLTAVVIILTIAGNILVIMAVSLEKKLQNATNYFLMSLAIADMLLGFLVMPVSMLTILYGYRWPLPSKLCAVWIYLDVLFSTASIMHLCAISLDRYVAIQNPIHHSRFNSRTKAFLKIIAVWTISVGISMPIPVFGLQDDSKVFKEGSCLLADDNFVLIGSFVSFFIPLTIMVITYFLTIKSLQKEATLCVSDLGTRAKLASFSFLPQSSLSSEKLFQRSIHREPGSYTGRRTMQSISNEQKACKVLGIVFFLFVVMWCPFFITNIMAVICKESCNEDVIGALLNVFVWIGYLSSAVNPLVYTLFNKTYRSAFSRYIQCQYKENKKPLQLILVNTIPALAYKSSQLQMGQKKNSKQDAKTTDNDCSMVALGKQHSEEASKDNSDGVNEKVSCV

With `Cc1cc(C)n(Cc2ccc(C(=O)Nc3ccc(Cl)c(Cl)c3)s2)n1` the Tmax [1] was 0.555 h, the Kp at 2 h [2] was 0.38 and the concentration at 20 min [3] was 1490 ng/mL. The MRT [4] was 4 h, the bioavailability [5] was 63.3% and the AUC(0-t) at 24 h [6] was 1450 ng·h/mL. The Cmax [7] was 2350 ng/mL, the Kp at 0.5 h [8] was 0.37 and the concentration at 1.333 h [9] was 239 ng/mL. It also gave a concentration at 0.5 h [10] of 389 ng/mL, a t1/2 [11] of 1.7 h and a half-life [12] of 2.9 h. It also gave a concentration at 2 h [13] of 2940 ng/mL, a Vdss [14] of 1.27 L/kg and a Tmax [15] of 0.5 h. For the same compound, the AUC(0-t) at 1280 min [16] was 1820 ng·h/mL, the Kp at 0.5 h [17] was 0.41 and the inhibition [18] was “inactive”. For the same compound, the AUC(0-t) at 24 h [19] was 3050 ng·h/mL, the inhibition [20] was “inactive” and the Kp at 2 h [21] was 0.34. The concentration at 2 h [22] was 85.5 ng/mL, the Activity [23] was “Non-Toxic” and the CL [24] was 27.8 mL/min/kg. The bioavailability [25] was 8.32%, the inhibition [26] was “inactive” and the inhibition [27] was “inactive”. The inhibition [28] was “inactive”, the Activity [29] was “Non-Toxic” and the inhibition [30] was “inactive”. For the same compound, the inhibition [31] was “inactive”, the fold change (FC) [32] was 12.5 and the half-life [33] was 1.13 h. The inhibition at 48 h, 60 µM [34] was 0.5%, the Activity [35] was “Toxic” and the inhibition [36] was “inactive”. For the same compound, the Activity (Mus musculus) was “Active”, the inhibition at 48 h, 120 µM [37] was 22.6% and the Activity [38] was “Non-Toxic”. For the same compound, the concentration at 2 h [39] was 174 ng/mL.
